# Patent publication US7655626B2, “Antiangiogenic peptides” (Universite de Liege, priority 2004, dated 2010)
# B1: 16K hPRL: 16 kDa N-terminal fragment of human prolactin, positive control (protein)
# chain: LPICPGGAARCQVTLRDLFDRAVVLSHYIHNLSSEMFSEFDKRYTHGRGFITKAINSCHTSSLATPEDKEQAQQMNQKDFLSLIVSILRSWNEPLYHLVTEVRGMQEAPEAILSKAVEIEEQTKRLLEGMELIVSQVHP
# Columns and labels:
# [1] = Lipid phase (liposome) fusion, R18 fluorescence; conditions: for Relative liposome fusion, pH 8 UC / Relative liposome fusion, pH 4 UC / Relative liposome fusion, pH 6 UC: uncharged liposomes; for Relative liposome fusion, pH 4 C / Relative liposome fusion, pH 6 C / Relative liposome fusion, pH 8 C: charged liposomes
# Description: Lipid phase fusion was measured by following the fluorescence of a liposoluble marker, R18. When incorporated into liposomes at a high surface density, R18 fluorescence is attenuated. Upon dilution of the marker through membrane fusion of labeled and unlabeled liposomes, the attenuation is relieved and R18 fluorescence increases. Labeled liposomes were prepared by blending R18 into the lipid film (see table 1). Labeled and unlabeled liposomes were mixed in a 1:4 ratio (w/w) and diluted to a concentration of 50 μM. Fluorescence is measured at room temperature (excitation λ: 560 nm, emission λ: 590 nm) on a Perkin Elmer LS-50B fluorimeter. The ability of PO-PRL to induce liposome fusion was analyzed in two different liposome preparations at different pH (table 1).
# The following buffers were used: pH 8 buffer (10 mM Tris-HCl, pH=8; 150 mM NaCl; 0.01% EDTA; 1 mM NaN3), pH 6 buffer (10 mM Sodium-Acetate, pH=6; 150 mM NaCl; 0.01% EDTA; 1 mM NaN3), pH 4 buffer (10 mM Sodium Acetate, pH=4; 57 mM Acetic Acid)
# The following concentrations of the peptide were used: • 600 μM corresponding to a molar peptide/lipid ratio (R) of 0.2 • 300 μM corresponding to a peptide/lipid ratio (R) of 0.1 • 150 μM corresponding to a peptide/lipid ratio (R) of 0.05 • 60 μM corresponding to a peptide/lipid ratio (R) of 0.02 • 30 μM corresponding to a peptide/lipid ratio (R) of 0.01.
# [2] = Secondary structure by ATR-FTIR; format: physicochemical; conditions: peptide dissolved in 100% DMSO
# Description: The conformation of the peptide in solution is analyzed by Fourier transformed infrared spectroscopy (ATR-FTIR). The sample (20 μg) is spread on a Germanium plate and spectra are recorded between 1800 and 1000 cm−1. The deconvolution of the 1700-1600 cm−1 area, corresponding to the amide I band, allows the determination of the secondary structure of the peptide (Goormaghtigh, E., et al. Biochim Biophys Acta 1422:[…] (1999)). The secondary structure of the peptide is given Table 3. Tilted peptides are often in β structure in solution, while being helical in the presence of lipids (Martin, I., et al. Biochem Biophys Res Commun 175:872-9 (1991)).
# [3] = test system: MDA-MB-231 human breast cancer cell; test: Viability assay (calcein-AM), MDA-MB-231; format: cell-based; conditions: 10 nM; 72 h
# Description: (§1) In order to determine whether the effect of tilted peptides exerted on endothelial cells is cell specific, a viability assay was performed on BACE and ABAE endothelial cells and on two tumoral cells lines, the B16-F10 murine melanoma cells and the MDA-MB-231 human breast cancer cell. Viable cells are detected by the presence of intracellular esterase, determined by the enzymatic conversion of non fluorescent calcein AM (an ester derivative) into fluorescent calcein.
# (§2) To determine whether the activity of the MBP-PO-PRL and MBP-PO-GH is specific for endothelial cells, their ability to affect viability of B16-F10 and MDA-MB-231 cell line was determined. 25000 MDA-MB-231 cells and B16-F10 cells were plated in 24-well plates, respectively in 0.5 ml 10% FCS/RPMI medium and in 10% FCS/DMEM 4500 medium. The cells were treated with recombinant proteins or campthotecin for 72 h. Cells were washed, incubated with calcein-AM and fluorescence determined as described above.
# [4] = test system: B16-F10 murine melanoma cells; test: Viability assay (calcein-AM), B16-F10; format: cell-based; conditions: 10 nM; 72 h
# Description: as §1, §2
# [5] = test system: BACE cells; test: In vitro capillary formation, collagen gel assay; format: cell-based, Bovine; conditions: 10 nM
# Description: In order to further analyze the ability of the MBP-PO-PRL to prevent angiogenesis in vitro, its capacity to prevent capillary formation was analyzed in a collagen gel assay. This assay was performed as follows: 20000 cells were plated between two collagen gels (5 volumes rat tail collagen, 1 volume 10×M199 medium, 50 mM NaHCO3). Gels were overlaid with 10% FBS medium containing or not recombinant proteins of interest.
# [6] = test system: BACE cells; test: Apoptosis by flow cytometry (propidium iodide, sub-G1 population); format: cell-based, Bovine; conditions: 10 nM; 18-h treatment; untreated cells 1%
# Description: In order to determine the effect of MPB-PO-PRL on endothelial cell apoptosis, the inventors have analyzed the DNA content of MBP-PO-PRL treated cells by flow cytometry. For this purpose, DNA was labeled with propidium iodide. Bovine adrenal cortex endothelial (BACE) cells were plated in low-glucose Dulbbecco's modified Eagle's medium containing 10% fetal calf serum (FCS) and 100 U/ml penicillin/streptomycin per ml (10% FCS medium) at a density of cells 5×10^5/100 mm plate. 24 h after plating, cells were treated for 18 h with the proteins of interest. The cells were then harvested and fixed and permeabilized in ice-cold ethanol for 2 h before centrifugation and incubation (at 37° C. for 30 min) in PBS containing Rnase (5 μg/ml) and propidium iodide (50 μg/ml). The cells were analysed using a Coulter Epics XL flow cytometer.
molecule,measurement,setting,value
FLSLIVSILRSWNE [PO-PRL],"Relative liposome fusion, pH 8 UC","[1]; R 0.05 (150 μM), 15 min",38%
same,"Relative liposome fusion, pH 4 C","[1]; R 0.05, 15 min",35%
same,"Relative liposome fusion, pH 4 UC","[1]; R 0.05, 15 min",100%
same,"Relative liposome fusion, pH 6 C","[1]; R 0.05, 15 min",35%
same,"Relative liposome fusion, pH 6 UC","[1]; R 0.05, 15 min",38%
same,"Relative liposome fusion, pH 8 C","[1]; R 0.05, 15 min",34%
same,"Relative liposome fusion, pH 8 UC","[1]; R 0.1 (300 μM), 15 min",64%
same,"Relative liposome fusion, pH 4 C","[1]; R 0.1, 15 min",34%
same,"Relative liposome fusion, pH 4 UC","[1]; R 0.1, 15 min",105%
same,"Relative liposome fusion, pH 6 C","[1]; R 0.1, 15 min",44%
same,"Relative liposome fusion, pH 6 UC","[1]; R 0.1, 15 min",55%
same,"Relative liposome fusion, pH 8 C","[1]; R 0.1, 15 min",41%
same,"Relative liposome fusion, pH 4 C","[1]; R 0.2, 15 min",47%
same,"Relative liposome fusion, pH 4 UC","[1]; R 0.2, 15 min",97%
same,"Relative liposome fusion, pH 6 C","[1]; R 0.2, 15 min",87%
same,"Relative liposome fusion, pH 6 UC","[1]; R 0.2, 15 min",68%
same,"Relative liposome fusion, pH 8 C","[1]; R 0.2, 15 min",64%
same,"Relative liposome fusion, pH 8 UC","[1]; R (peptide/lipid) 0.2 (600 μM), after 15 min, reference set at 100%",100%
same,Secondary structure: Alpha,[2],16%
same,Secondary structure: Beta,[2],63%
same,Secondary structure: Coil,[2],9%
same,Secondary structure: Turn,[2],12%
B1,cell viability,[3],do not affect viability
same,cell viability,[4],do not affect viability
same,capillary formation in collagen gel,[5],prevents capillary formation
same,percentage of sub-G1 cell population,[6],"55,9%"
